Here are results for three compounds from article PMC5844225 (Journal of medicinal chemistry, 2016).

The subject of test [1] is S. mansoni schistosomula. Nature of the test: Automated ex vivo larval S. mansoni HCS assay. As to conditions: 48 h exposure. It counts as cell-based, Schistosoma mansoni.
In test [2] the test system is SmTGR. Conditions: cited from earlier work.

Molecules are shown by their SMILES.

With `Cc1noc(/C=C/c2ccccn2)c1[N+](=O)[O-]` [Compound 3, 2-[2-(3-methyl-4-nitro-5-isoxazolyl)vinyl]pyridine], the schistosomula phenotype result in test [1] is recorded as “internal disruption of larvae”. For `O=S(=O)(Cc1ccccc1)c1nc2ccccc2s1` [Compound 4, 2-(benzylsulfonyl)-1,3-benzothiazole], the schistosomula phenotype result in test [1] was “internal disruption of larvae”. As to `Cc1c(-c2cnccn2)ssc1=S` [OLT, oltipraz], the SmTGR inhibition mode entry in test [2] is given as “noncompetitive inhibitor”.
